Tests used:
[1] = Preliminary in vitro volatilization test on hot plate (Example 4a); format: physicochemical; settings: 40 mg sample; for Oxycodone Collected (in mg), total: total of 4 time points
Source text: In order to further assess the abuse-resistance performance of the dosage forms of the present invention, the following in vitro volatilization test was developed. In particular, intentional abuse of controlled release pharmaceutical dosage forms may alternatively be carried out by volatilization (smoking, or free-basing) techniques that can liberate active agent (in immediately active form) from commercially available controlled release carrier systems. Accordingly, a preliminary in vitro volatilization test was developed in order to assess: (1) whether oxycodone free base was more volatile than the salt (HCl) form; and (2) whether the abuse-resistant dosage forms produced according to the instant invention can prevent inhalation abuse through volatilization.
Each petri dish was fitted with a watch glass as a cover, and the covered test dishes were placed on a hot plate (setting 10). After 30 seconds each watch glass was replaced with a fresh watch glass, and this step was repeated three times (to obtain 4 time points). Any residue deposited on the bottom side of the test watch glasses was carefully transferred with an Alpha Swab (TX 761) into 40/60 ethanol/0.005M HCl solution, and the concentration of oxycodone solution was determined by HPLC. The observations taken during the test were as follows. […] It was noted that vaporized drug (and solvents where present) escaped during each change of the watch glass, which may be at least partially responsible for the low recovery noted in the HPLC results below. […] The HPLC results obtained in this Example 4a are provided below in Table 30.

[2] = Solubility of the active agent in Triacetin and in water (stated); format: physicochemical
[3] = Thermal gravimetric analysis of oxycodone base and oxycodone HCl; format: physicochemical
Protocol: Initially, thermal gravimetric analysis was used to measure the weight loss of oxycodone base and oxycodone HC1 in order to determine the correct temperature to conduct the volatilization study. Oxycodone base was subjected to increasing temperature conditions (30 to 350° C.) at a ramping rate of 20° C./min. Vaporization occurred above 200° C. and was complete at 310° C. Vaporization of oxycodone HCl (28 to 400° C.) was analogous to that of the free base up to approximately 300° C. after which significant decomposition of the salt form occurred. Based on these observations, a temperature of 280° C. was selected for this study. This temperature is above the melting point of oxycodone (to ensure adequate drug vaporization) and below 300° C. (to limit decomposition of the salt form). A maximum exposure time of 10 minutes was selected based on pre-test observations that little additional oxycodone was recovered beyond that time point.

[4] = intravenous bolus dosing, human, open literature data; cited from earlier work

COc1ccc2c3c1O[C@H]1C(=O)CC[C@@]4(O)[C@@H](C2)N(C)CC[C@]314 [oxycodone API (free base form)]
Oxycodone Collected ([1]; time point 0.5 minutes): 1.4730 mg | Oxycodone Collected ([1]; time point 1.0 minutes): 7.2666 mg | Oxycodone Collected ([1]; time point 1.5 minutes): 0.7356 mg | Oxycodone Collected ([1]; time point 2.0 minutes): 0.7050 mg | Oxycodone Collected (in mg), total [1]: 10.1802 mg

COc1ccc2c3c1O[C@H]1C(=O)CC[C@@]4(O)[C@@H](C2)N(C)CC[C@]314 [oxycodone free base, oxycodone]
solubility in Triacetin [2]: high solubility in Triacetin | solubility in water [2]: low water solubility | temperature above which vaporization occurred ([3]; ramping rate 20° C./min): above 200 °C | temperature at which vaporization was complete ([3]; ramping rate 20° C./min): 310 °C

COc1ccc2c3c1O[C@H]1C(=O)CC[C@@]4(O)[C@@H](C2)N(C)CC[C@]314.Cl [oxycodone in salt form, oxycodone HCl]
solubility in Triacetin [2]: low solubility in Triacetin | solubility in water [2]: high solubility in water | temperature after which significant decomposition occurred ([3]; 28 to 400° C.): approximately 300 °C

COc1ccc2c3c1O[C@H]1C(=O)CC[C@@]4(O)[C@@H](C2)N(C)CC[C@]314.Cl [oxycodone API (HCl salt form)]
Oxycodone Collected ([1]; time point 0.5 minutes): 1.7202 mg | Oxycodone Collected ([1]; time point 1.0 minutes): 0.4086 mg | Oxycodone Collected ([1]; time point 1.5 minutes): 0.1236 mg | Oxycodone Collected ([1]; time point 2.0 minutes): 0.0270 mg | Oxycodone Collected (in mg), total [1]: 2.2794 mg

C[C@H](N)Cc1ccccc1 [d-amphetamine]
unit impulse response parameter A [4]: 98.3±6.01 | unit impulse response parameter B [4]: 28.2±0.56 | unit impulse response parameter α [4]: 9.65±0.64 | unit impulse response parameter β [4]: 6.31×10^−2±3.78×10^−3
